Reference: PubChem BioAssay (NCI)
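96-well plates; 48 h exposure; 5 concentrations. Endpoints by linear interpolation between flanking doses. Not reached: highest tested concentration assigned. GI50 = concentration required for 50% inhibition of growth. TGI marks complete inhibition of growth.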

How the values were obtained:
Experiment in all cases: DTP human tumour cell line panel, 48 h
SF-539 CNS = tested on: SF-539 CNS
NCI-H226 lung = tested on: NCI-H226 lung
EKVX NSCLC = tested on: EKVX NSCLC
OVCAR-8 ovarian = tested on: OVCAR-8 ovarian
SNB-75 CNS = tested on: SNB-75 CNS
SNB-19 CNS = tested on: SNB-19 CNS
TK-10 renal = tested on: TK-10 renal
NCI/ADR-RES ovarian = tested on: NCI/ADR-RES ovarian
SK-MEL-5 melanoma = tested on: SK-MEL-5 melanoma
NCI-H23 lung = tested on: NCI-H23 lung
KM12 colon = tested on: KM12 colon
SN12C renal = tested on: SN12C renal
SF-268 CNS = tested on: SF-268 CNS
RPMI-8226 leukemia = tested on: RPMI-8226 leukemia
ACHN renal = tested on: ACHN renal
A549 NSCLC = tested on: A549 NSCLC
HS 578T breast = tested on: HS 578T breast
LOX IMVI melanoma = tested on: LOX IMVI melanoma
U251 CNS = tested on: U251 CNS
HL-60(TB) leukemia = tested on: HL-60(TB) leukemia
SW-620 colon = tested on: SW-620 colon
SK-MEL-2 melanoma = tested on: SK-MEL-2 melanoma
SR leukemia = tested on: SR leukemia
K-562 leukemia = tested on: K-562 leukemia
RXF 393 renal = tested on: RXF 393 renal
MALME-3M melanoma = tested on: MALME-3M melanoma
HT29 colon = tested on: HT29 colon
MDA-MB-435 = tested on: MDA-MB-435
HOP-62 NSCLC = tested on: HOP-62 NSCLC
UACC-62 melanoma = tested on: UACC-62 melanoma
UACC-257 melanoma = tested on: UACC-257 melanoma
BT-549 breast = tested on: BT-549 breast
HOP-92 NSCLC = tested on: HOP-92 NSCLC
HCT-116 colon = tested on: HCT-116 colon
MOLT-4 leukemia = tested on: MOLT-4 leukemia
UO-31 renal = tested on: UO-31 renal
OVCAR-5 ovarian = tested on: OVCAR-5 ovarian
M14 melanoma = tested on: M14 melanoma
HCC-2998 colon = tested on: HCC-2998 colon
786-0 renal = tested on: 786-0 renal
NCI-H460 lung = tested on: NCI-H460 lung
MDA-MB-231 breast = tested on: MDA-MB-231 breast
IGROV1 ovarian = tested on: IGROV1 ovarian
MCF7 breast = tested on: MCF7 breast
HCT-15 colon = tested on: HCT-15 colon
COLO 205 colon = tested on: COLO 205 colon
NCI-H522 lung = tested on: NCI-H522 lung
DU-145 prostate = tested on: DU-145 prostate
PC-3 prostate = tested on: PC-3 prostate
OVCAR-3 ovarian = tested on: OVCAR-3 ovarian
T-47D breast = tested on: T-47D breast
SK-MEL-28 melanoma = tested on: SK-MEL-28 melanoma
SF-295 CNS = tested on: SF-295 CNS
SK-OV-3 ovarian = tested on: SK-OV-3 ovarian
CCRF-CEM leukemia = tested on: CCRF-CEM leukemia
A498 renal = tested on: A498 renal
OVCAR-4 ovarian = tested on: OVCAR-4 ovarian
CAKI-1 renal = tested on: CAKI-1 renal

In the case of `CC1=C([Se]CC(OC(=O)CC[Se]c2ccccc2)C(=O)NCCCCCC(=O)OCc2ccccc2)C(=O)c2ccccc2C1=O` (stereo unspecified), the GI50 (SF-539 CNS) is reported as 2.36 µM, the TGI (SF-539 CNS) is reported as 6.03 µM and the GI50 (NCI-H226 lung) is reported as 2.75 µM. The TGI (NCI-H226 lung) was 7.07 µM, the GI50 (EKVX NSCLC) was 2.96 µM and the TGI (EKVX NSCLC) was 29.2 µM. For the same compound, the GI50 (OVCAR-8 ovarian) was 2.44 µM, the TGI (OVCAR-8 ovarian) was 7.16 µM and the GI50 (SNB-75 CNS) was 1.71 µM. It also gave a TGI (SNB-75 CNS) of 6.23 µM, a GI50 (SNB-19 CNS) of 2.72 µM and a TGI (SNB-19 CNS) of 11 µM. For the same compound, the GI50 (TK-10 renal) was 4.47 µM, the TGI (TK-10 renal) was 12.4 µM and the GI50 (NCI/ADR-RES ovarian) was 2.36 µM. For the same compound, the TGI (NCI/ADR-RES ovarian) was 6.5 µM, the GI50 (SK-MEL-5 melanoma) was 1.54 µM and the TGI (SK-MEL-5 melanoma) was 3.06 µM. The GI50 (NCI-H23 lung) was 2 µM, the TGI (NCI-H23 lung) was 5.53 µM and the GI50 (KM12 colon) was 2.27 µM. It also gave a TGI (KM12 colon) of 5.45 µM, a GI50 (SN12C renal) of 3.25 µM and a TGI (SN12C renal) of 14.3 µM. It also gave a GI50 (SF-268 CNS) of 2.5 µM, a TGI (SF-268 CNS) of 6.31 µM and a GI50 (RPMI-8226 leukemia) of 3.18 µM. For the same compound, the TGI (RPMI-8226 leukemia) was 12.9 µM, the GI50 (ACHN renal) was 3.18 µM and the TGI (ACHN renal) was 13.8 µM. The GI50 (A549 NSCLC) was 2.56 µM, the TGI (A549 NSCLC) was 6.72 µM and the GI50 (HS 578T breast) was 2.47 µM. For the same compound, the TGI (HS 578T breast) was 34.2 µM, the GI50 (LOX IMVI melanoma) was 1.81 µM and the TGI (LOX IMVI melanoma) was 4.28 µM. The GI50 (U251 CNS) was 1.89 µM, the TGI (U251 CNS) was 4.07 µM and the GI50 (HL-60(TB) leukemia) was 2.75 µM. For the same compound, the TGI (HL-60(TB) leukemia) was 8.25 µM, the GI50 (SW-620 colon) was 3.28 µM and the TGI (SW-620 colon) was 11.6 µM. The GI50 (SK-MEL-2 melanoma) was 3.32 µM, the TGI (SK-MEL-2 melanoma) was 9.96 µM and the GI50 (SR leukemia) was 3.38 µM. The TGI (SR leukemia) was 17.2 µM, the GI50 (K-562 leukemia) was 3.31 µM and the TGI (K-562 leukemia) was 23.7 µM. For the same compound, the GI50 (RXF 393 renal) was 1.91 µM, the TGI (RXF 393 renal) was 5.64 µM and the GI50 (MALME-3M melanoma) was 2.31 µM. It also gave a TGI (MALME-3M melanoma) of 5.92 µM, a GI50 (HT29 colon) of 3.65 µM and a TGI (HT29 colon) of 12.1 µM. The GI50 (MDA-MB-435) was 2.45 µM, the TGI (MDA-MB-435) was 7.45 µM and the GI50 (HOP-62 NSCLC) was 1.87 µM. It also gave a TGI (HOP-62 NSCLC) of 4.32 µM, a GI50 (UACC-62 melanoma) of 1.83 µM and a TGI (UACC-62 melanoma) of 4.39 µM. For the same compound, the GI50 (UACC-257 melanoma) was 2.78 µM, the TGI (UACC-257 melanoma) was 7.9 µM and the GI50 (BT-549 breast) was 2.99 µM. It also gave a TGI (BT-549 breast) of 12.2 µM, a GI50 (HOP-92 NSCLC) of 2.46 µM and a TGI (HOP-92 NSCLC) of 5.91 µM. It also gave a GI50 (HCT-116 colon) of 2.12 µM, a TGI (HCT-116 colon) of 6.53 µM and a GI50 (MOLT-4 leukemia) of 3.61 µM. The TGI (MOLT-4 leukemia) was 31.2 µM, the GI50 (UO-31 renal) was 2.07 µM and the TGI (UO-31 renal) was 7.41 µM. It also gave a GI50 (OVCAR-5 ovarian) of 5.39 µM, a TGI (OVCAR-5 ovarian) of 20.1 µM and a GI50 (M14 melanoma) of 2.04 µM. For the same compound, the TGI (M14 melanoma) was 4.8 µM, the GI50 (HCC-2998 colon) was 2.9 µM and the TGI (HCC-2998 colon) was 7.46 µM. For the same compound, the GI50 (786-0 renal) was 3.18 µM, the TGI (786-0 renal) was 8.36 µM and the GI50 (NCI-H460 lung) was 1.78 µM. The TGI (NCI-H460 lung) was 5.34 µM, the GI50 (MDA-MB-231 breast) was 1.95 µM and the TGI (MDA-MB-231 breast) was 4.94 µM. The GI50 (IGROV1 ovarian) was 1.31 µM, the TGI (IGROV1 ovarian) was 4.11 µM and the GI50 (MCF7 breast) was 2.51 µM. It also gave a TGI (MCF7 breast) of 12.7 µM, a GI50 (HCT-15 colon) of 3.85 µM and a TGI (HCT-15 colon) of 21.6 µM. It also gave a GI50 (COLO 205 colon) of 2.15 µM, a TGI (COLO 205 colon) of 3.93 µM and a GI50 (NCI-H522 lung) of 2.28 µM. It also gave a TGI (NCI-H522 lung) of 6.16 µM, a GI50 (DU-145 prostate) of 3.64 µM and a TGI (DU-145 prostate) of 11.4 µM. It also gave a GI50 (PC-3 prostate) of 2.26 µM, a TGI (PC-3 prostate) of 12.4 µM and a GI50 (OVCAR-3 ovarian) of 1.83 µM. The TGI (OVCAR-3 ovarian) was 4.71 µM, the GI50 (T-47D breast) was 2.2 µM and the TGI (T-47D breast) was 8.21 µM. The GI50 (SK-MEL-28 melanoma) was 2.98 µM, the TGI (SK-MEL-28 melanoma) was 7.76 µM and the GI50 (SF-295 CNS) was 1.97 µM. It also gave a TGI (SF-295 CNS) of 8.46 µM, a GI50 (SK-OV-3 ovarian) of 3.95 µM and a TGI (SK-OV-3 ovarian) of 7.27 µM. For the same compound, the GI50 (CCRF-CEM leukemia) was 3.61 µM, the TGI (CCRF-CEM leukemia) was over 100 µM and the GI50 (A498 renal) was 2.25 µM. The TGI (A498 renal) was 8.48 µM, the GI50 (OVCAR-4 ovarian) was 2.28 µM and the TGI (OVCAR-4 ovarian) was 6.56 µM. The GI50 (CAKI-1 renal) was 2.57 µM and the TGI (CAKI-1 renal) was 7.72 µM.
